Results reported in US5710012A, “Salt of 6-carboxy-3-methylbenzothiazolone hydrazone hydrate in colorimetric determination of hydrogen peroxide” (ActiMed Laboratories, Inc., priority 1994, dated 1998).
Where a name gives a salt, the structure may show the parent alone. Read-outs that look alike come from different tables or passages of the source.

Assays:
[1] = cited from earlier work
[2] = Heat Stability on coated polyester fabric at 120° C.; type: physicochemical; conditions: for Density: 120° C., absorbance at 310 nm
Method: In order to evaluate the heat stability of sodium carboxy MBTH, 38 mg. of either MBTH.HCl or NaCMBTH was added to 1.2 mL water to dissolve. Then, 0.75 mL of this solution was added to 21 mg Hydrisel SX 660, a commercial surfactant and […] 0.1% ACP polymer (ISP Technologies), prepared in 70% isopropanol solution. Each solution was coated onto a 4-inch wide polyester fabric in a thin layer and dried at 40° C. for fifteen minutes. The coated fabric was sealed in an airtight foil bag and stored at 4° C.
Small samples (2 cm×5 cm) of each coated fabric were placed into a 120° C. oven and removed at appropriate intervals. The heat-stressed fabric samples were assayed spectrophotometrically.
The fabric samples were placed into a tared test tube and weighed. Ten mL of 20 mM phosphate buffer, pH 7.0, was added. The tubes were capped and agitated for ten minutes at room temperature. Absorbance at 310 nm was read for each sample and the values were compared against a standard curve.

[3] = Solubility Comparison in water; type: physicochemical; conditions: for Water added: to dissolve 100 mg completely
Method: (§1) The solubility of MBTH.HCl was compared with that of NaCMBTH. One hundred mg samples of each of MBTH.HCl (Aldrich) and NaCMBTH were placed into test tubes. Water was added in 50 μ-L aliquots until the sample completely dissolved.

[4] = Solubility Comparison in pH 7 buffer; type: physicochemical; conditions: for solubility: 0.1m phosphate buffer, aqueous buffer, pH 7 buffer (phosphate, 0.1M); for Water added: to dissolve 100 mg completely, pH 7 buffer (phosphate, 0.1M) instead of water
Method: as §1
An identical experiment was performed using pH 7 buffer (phosphate, 0.1M) instead of water.

[5] = Relative Molar Extinction Coefficients (absorbance of dye formed with N-ethylanilinopropanamine, POD and H2O2); type: physicochemical; conditions: pH 6.5 phosphate buffer, same molar concentration, coupled with N-ethylanilinopropanamine hydrochloride
Method: The relative absorbance of MBTH and sodium carboxy MBTH, an illustrative soluble hydrazone compound, was measured and compared. Since each compound was measured at the same molar concentration, the molar extinction was proportional to the […].
Each sample contained the following:
1 mL phosphate buffer, 0.035M, pH 6.5
10 μL R-MBTH solution, 10 mM, where R=H or COONa
100 μL N-ethylanilinopropanamine hydrochloride, 10 mM
10 μL POD solution, ~120 IU/mL
A 1-mL aliquot of each solution was transferred to a cuvette and diluted with an addition 2 mL of phosphate buffer solution.

Row | SMILES | solubility in water compared with MBTH ([1]; U.S. Pat. No. 4,101,381) | Density ([2]; time 0) [mg/m^2] | Density ([2]; time 4 (hours)) [mg/m^2] | heat stability ([2]; after only two hours at 120° C.) | water solubility of the dye formed in the color reactions [1] | heat stability ([1]; dry form, 60° C., as noted in U.S. Pat. No. 4,101,381) | usable pH (autoxidative color reaction otherwise) ([1]; pH, absence of hydrogen peroxide) | solubility [3] [mg/mL] | Water added [3] [µL] | solubility [4] [mg/mL] | Water added [4] [µL] | Absorbance at 600 nm [5] [absorbance units] | Density ([2]; time 6 (hours)) [mg/m^2] | Density ([2]; time 23 (hours)) [mg/m^2] | heat stability ([2]; after 23 hours at 120° C.) | heat stability ([2]; after six hours at 120° C.)
1 | Cn1c(=NNS(=O)(=O)O)sc2ccccc21 [3-methyl-2-sulfonyl-benzothiazolononhydrazone] | much poorer solubility in water than MBTH |  |  |  |  |  |  |  |  |  |  |  |  |  |  | 
2 | Cn1c(=NN)sc2ccccc21 [MBTH.HCl, 3-methyl benzothiazolone-2-hydrazone HCL] |  | 114.7 | 10.2 | effectively decomposed | relatively poor water solubility | insufficiently stable | below 7 | 34 | 2900 | < 10 | > 9600 | 0.1513 |  |  |  | 
3 | Cn1c(=NN)sc2cc(C(=O)O)ccc21 [NaCMBTH, 3-methylbenzothiazolone-2-hydrazone-6-carboxylic acid, sodium salt] |  | 75.4 | 50.4 |  |  |  |  | 87 | 1150 | 174 | 575 | 0.2115 | 51.2 | 50.3 | retains most of its activity | still viable
